For 38 compounds, IC50 results are on record in patent US20260042747A1, “KIT INHIBITORS, COMPOUNDS, PHARMACEUTICAL COMPOSITIONS, AND METHODS OF USE THEREOF” (Alivexis, Inc., priority 2022, published 2026).

Where a name gives a salt, the structure may show the parent alone.

The target in this test is recombinant human KIT tyrosine kinase protein (Homo sapiens (Human), UniProt P10721). Description: KIT tyrosine kinase assay (ADP-Glo). The class given is biochemical. The method, then:
An in vitro assay utilizing the recombinant human KIT tyrosine kinase protein was developed to measure compound inhibition of KIT. KIT tyrosine kinase activity was measured by the ADP-Glo Kinase Assay system with poly […]) peptide substrate. Kinase Assay was performed in white 384-well plates and the luminescence was measured by Victor X5 Multilabel Counter (Perkin Elmer). Recombinant intracellular domain of human KIT protein was purchased from Carna Biosciences (Kobe, Japan). Poly […]) peptide was purchased from Sigma-Aldrich (St. Louis, Missouri, USA). ADP-Glo Kinase Assay reagent was purchased from Promega (Madison, Wisconsin, USA). Each test compound was dissolved in 100% DMSO to prepare 10 mM stock solutions. […] After the preincubation, 3 μL of substrate/ATP mixture was added and incubated for 1 hour at room temperature. The tyrosine phosphorylation by KIT kinase was quantified by ADP-Glo kinase assay kit following the manufacturer's protocol. Briefly, the phosphorylation reaction was terminated by adding 10 μL ADP-Glo reagent and incubated for 60 minutes at room temperature. 20 μL of Kinase Detection Reagent was added to each well and luminescence was measured by plate reader. […] Half maximal inhibitory concentration (IC50) was calculated by a Four […] Logistic Regression model using GraphPad Prism (GraphPad Software). The value without recombinant KIT protein and without test compound was used as a negative control (assay background).
For orientation: ADP-Glo turns the ADP formed in a reaction into a luminescent signal.

Chain of recombinant human KIT tyrosine kinase protein (P10721 546-976): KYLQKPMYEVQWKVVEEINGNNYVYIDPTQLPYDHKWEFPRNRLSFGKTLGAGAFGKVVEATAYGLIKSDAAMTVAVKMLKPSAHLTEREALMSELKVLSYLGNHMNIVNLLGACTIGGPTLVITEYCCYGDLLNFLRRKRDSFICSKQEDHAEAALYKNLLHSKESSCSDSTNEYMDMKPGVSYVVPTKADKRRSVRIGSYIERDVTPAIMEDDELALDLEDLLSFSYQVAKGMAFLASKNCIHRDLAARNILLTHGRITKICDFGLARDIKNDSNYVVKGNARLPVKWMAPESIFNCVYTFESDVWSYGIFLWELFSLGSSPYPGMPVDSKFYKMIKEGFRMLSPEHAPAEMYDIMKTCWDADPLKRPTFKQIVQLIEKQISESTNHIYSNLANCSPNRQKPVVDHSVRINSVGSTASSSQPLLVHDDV

For orientation: IC50 means the concentration that gives 50% inhibition. As to `Cn1c(=O)[nH]c2cc(C(=O)NCc3cnc4c(c3)ncn4-c3c(F)cccc3F)ccc21` [Compound 21, N-((3-(2,6-Difluorophenyl)-3H-imidazo[4,5-b]pyridin-6-yl)methyl)-1-methyl-2-oxo-2,3-dihydro-1H-benzimidazole-5-carboxamide trifluoroacetate], the IC50 (Table 98) is 660 nM.

Regarding `Cn1c(=O)[nH]c2cc(C(=O)NCc3ccc(Oc4ccc5cn[nH]c5c4)nc3)ccc21` [Example 44], the IC50 (Table 98) was 120 nM.

Take `Cn1c(=O)[nH]c2cc(C(=O)NCc3ccc(Oc4c(F)cccc4F)nc3)ccc21` [Example 40]: the IC50 (Table 98) is 39 nM.

For `CCN(CC)c1ccc(CNC(=O)c2ccc3c(c2)[nH]c(=O)n3C)cn1` [Example 85], the IC50 (Table 98) worked out at 150 nM.

With `Cc1ccc(CN(C)c2ccc(CNC(=O)c3ccc4c(c3)[nH]c(=O)n4C)cn2)nc1` [Example 79], the IC50 (Table 98) was 210 nM.

For the compound `Cn1c(=O)[nH]c2cc(C(=O)NCc3ccc(Oc4cc(F)ccc4F)nc3)ccc21` [Example 41], the IC50 (Table 98) was found to be 36 nM.

As for `CN1CCN(Cc2cccc(N(C)c3ccc(CNC(=O)c4ccc5c(c4)[nH]c(=O)n5C)cn3)c2)CC1` [Compound 26, 1-Methyl-N-((6-(methyl(3-((4-methylpiperazin-1-yl)methyl)phenyl)amino)pyridin-3-yl)methyl)-2-oxo-2,3-dihydro-1H-benzimidazole-5-carboxamide trifluoroacetate], the IC50 (Table 98) came out at 270 nM.

On to `C[C@H](NC(=O)c1ccc2c(c1)[nH]c(=O)n2C)c1ccc(Oc2ccc(F)c(F)c2)nc1` [Compound 7, (S)—N-(1-(6-(3,4-Difluorophenoxy)pyridin-3-yl)ethyl)-1-methyl-2-oxo-2,3-dihydro-1H-benzimidazole-5-carboxamide], for which, where the note is “Table 98”, the IC50 was determined as 40 nM.

For the compound `C[C@H](NC(=O)c1ccc2c(c1)[nH]c(=O)n2C)c1ccc(N(C)c2ccc(F)cc2)nc1` [Compound 13, (S)—N-(1-(6-((4-Fluorophenyl)(methyl)amino)pyridin-3-yl)ethyl)-1-methyl-2-oxo-2,3-d ihydro-1H-benzimidazole-5-carboxamide], the IC50 (Table 98) turned out to be 40 nM.

With `C[C@H](NC(=O)c1ccc2c(c1)[nH]c(=O)n2C)c1ccc(N(C)c2ccccc2F)nc1` [Example 88], the IC50 (Table 98) amounted to 98 nM.

Consider `CC(NC(=O)c1ccc2c(c1)[nH]c(=O)n2C)c1ccc(N(C)C(C)C)nc1` (single isomer, unassigned) [130 Peak 2], for which, under “Table 99”, the IC50 came out at 1040 nM.

For `CC(CO)N(C)c1ccc(CNC(=O)c2ccc3c(c2)[nH]c(=O)n3C)cn1` (centres unmarked) [Example 133], under “Table 99”, the IC50 came out at 75 nM.

In the case of `CN(Cc1ccncn1)c1ccc(CNC(=O)c2ccc3c(c2)[nH]c(=O)n3C)cn1` [Example 81], the IC50 (Table 98) came out at 150 nM.

With `Cn1c(=O)[nH]c2cc(C(=O)NCc3ccc(Oc4ccc5[nH]ncc5c4)nc3)ccc21` [Example 46], under “Table 98”, the IC50 came to 27 nM.

As to `CC(NC(=O)c1ccc2c(c1)[nH]c(=O)n2C)c1ccc(Oc2ccc(F)cc2F)nc1` (centres unmarked) [Compound 27, N-(1-(6-(2,4-Difluorophenoxy)pyridin-3-yl)ethyl)-1-methyl-2-oxo-2,3-dihydro-1H-benzi midazole-5-carboxamide], the IC50 (Table 98) amounted to 74 nM.

In the case of `Cn1c(=O)[nH]c2cc(C(=O)NCc3cnc4c(c3)ncn4-c3ccccc3F)ccc21` [Example 101], the IC50 (Table 98) was determined as 3300 nM.

As to `CC(NC(=O)c1ccc2c(c1)[nH]c(=O)n2C)c1ccc(Oc2ccc(Cl)cc2F)nc1` (centres unmarked) [Example 52], where the note is “Table 98”, the IC50 worked out at 24 nM.

As to `CC(C)Oc1ccc(CNC(=O)c2ccc3c(c2)[nH]c(=O)n3C)cn1` [Example 117], the IC50 (Table 99) was found to be 274 nM.

For the compound `Cn1c(=O)[nH]c2cc(C(=O)NCc3ccc(N(c4ccc(F)cc4)C4CC4)nc3)ccc21` [Compound 23, N-((6-(Cyclopropyl(4-fluorophenyl)amino)pyridin-3-yl)methyl)-1-methyl-2-oxo-2,3-dihy dro-1H-benzimidazole-5-carboxamide], the IC50 (Table 98) amounted to 78 nM.

For `Cn1c(=O)[nH]c2cc(C(=O)NCc3ccc(Oc4c(F)cc(F)cc4F)nc3)ccc21` [Example 42], the IC50 (Table 98) was 27 nM.

As to `Cn1c(=O)[nH]c2cc(C(=O)NCc3ccc(OC4CCC(F)(F)CC4)nc3)ccc21` [Example 47], under “Table 98”, the IC50 stood at 56 nM.

On to `Cn1c(=O)[nH]c2cc(C(=O)NCc3ccc(Oc4ccc(F)c(F)c4)nc3)ccc21` [Example 37], for which the IC50 (Table 98) was determined as 310 nM.

On to `Cn1c(=O)[nH]c2cc(C(=O)NCc3cnc(Oc4ccc(F)cc4)cn3)ccc21` [Example 49], for which, where the note is “Table 98”, the IC50 is 950 nM.

Regarding `CN(c1ccc(F)cc1)c1ccc(CNC(=O)c2ccc3[nH]c(=O)[nH]c3c2)cn1` [Example 56], the IC50 (Table 98) came to 29 nM.

`O=C(NCc1ccc(Nc2ccc(F)cc2)nc1)c1ccc2[nH]c(=O)[nH]c2c1` [Compound 8, N-((6-((4-Fluorophenyl)amino)pyridin-3-yl)methyl)-2-oxo-2,3-dihydro-1H-benzimidazole-5-carboxamide trifluoroacetate]: the IC50 (Table 98) was determined as 190 nM.

Take `Cn1c(=O)[nH]c2cc(C(=O)NCc3ccc(N(C)[C@H]4C[C@H](C(F)(F)F)C4)nc3)ccc21` [Example 87]: for the setting “Table 98”, the IC50 came to 68 nM.

In the case of `Cc1cc(CNC(=O)c2ccc3c(c2)[nH]c(=O)n3C)cnc1Oc1ccccc1` [Example 43], the IC50 (Table 98) came out at 140 nM.

As for `Cn1c(=O)[nH]c2cc(C(=O)NCc3ccc(NC4CCC(F)(F)CC4)nc3)ccc21` [Example 132], the IC50 (Table 99) worked out at 131 nM.

Turning to `CN(CC1CC(F)(F)C1)c1ncc(CNC(=O)c2ccc3c(c2)[nH]c(=O)n3C)s1` [Example 93], the IC50 (Table 98) turned out to be 270 nM.

For the compound `Cn1c(=O)[nH]c2cc(C(=O)NCc3cnc(NC4CCC(F)(F)CC4)s3)ccc21` [Compound 25, N-((2-((4,4-Difluorocyclohexyl)amino)thiazol-5-yl)methyl)-1-methyl-2-oxo-2,3-dihydro-1H-benzimidazole-5-carboxamide], the IC50 (Table 98) is 360 nM.

Consider `CC(C)N(C)c1ccc(C(NC(=O)c2ccc3c(c2)[nH]c(=O)n3C)c2ccccc2)cn1` (centres unmarked) [Example 113, N-((6-(Isopropyl(methyl)amino)pyridin-3-yl)(phenyl)methyl)-1-methyl-2-oxo-2,3-dihydr o-1H-benzimidazole-5-carboxamide], for which the half-maximal inhibitory concentration (IC50) (Table 99) was 2000 nM.

On to `Cc1cc(CNC(=O)c2ccc3c(c2)[nH]c(=O)n3C)cnc1Oc1ccc(F)cc1` [Example 45], for which, under “Table 98”, the IC50 was found to be 130 nM.

Take `CC(C)N(C)c1cnc(CNC(=O)c2ccc3c(c2)[nH]c(=O)n3C)cn1` [Example 94]: the IC50 (Table 98) stood at 120 nM.

`CN1CCC(N(C)c2ccc(CNC(=O)c3ccc4c(c3)[nH]c(=O)n4C)cn2)CC1` [Compound 24, 1-Methyl-N-((6-(methyl(1-methylpiperidin-4-yl)amino)pyridin-3-yl)methyl)-2-oxo-2,3-dihydro-1H-benzimidazole-5-carboxamide]: the IC50 (Table 98) is 340 nM.

Consider `Cn1c(=O)[nH]c2cc(C(=O)NCc3cnc(Oc4ccc(F)cc4)s3)ccc21` [Compound 5, N-((2-(4-Fluorophenoxy)thiazol-5-yl)methyl)-1-methyl-2-oxo-2,3-dihydro-1H-benz imidazole-5-carboxamide], for which, under “Table 98”, the IC50 was 3200 nM.

Take `Cn1c(=O)[nH]c2cc(C(=O)NCc3ccc(Oc4ccc(Cl)c(F)c4)nc3)ccc21` [Example 38]: where the note is “Table 98”, the IC50 stood at 60 nM.

Regarding `CN(c1ccc(CNC(=O)c2ccc3c(c2)[nH]c(=O)n3C)cn1)C1CCC2(CC1)COC2` [Example 123], the 50% inhibitory concentration (IC50) (Table 99) was 126 nM.

With `CC(NC(=O)c1ccc2c(c1)[nH]c(=O)n2C)c1ccc(Oc2cccc(F)c2F)nc1` (centres unmarked) [Example 53], the half-inhibitory concentration (IC50) (Table 98) was 79 nM.
